Source: patent US8148367B2 (Takeda Pharmaceutical Company Limited, priority 2008, dated 2012)

These compounds were tested against T1, Recombinant human renin (Homo sapiens, UniProt P00797) (assay: In vitro enzymatic activity assay of renin inhibitors (fluorescence, QXL520/HiLyteFluo488 peptide substrate)). Details: recombinant human renin 3 nM, 1 μM substrate, pre-incubated 10 minutes at 37° C., incubation one hour, pH 7.4, 5% DMSO; read-out: IC50 of Exemplified Compounds Against Renin.
T1 construct: isolate the active form (residues 67-406); made in house; host or cells: FreeStyle 293-F cells, transient expression of pcDNA3.1(+)/hREN
T1 sequence (P00797 67-406): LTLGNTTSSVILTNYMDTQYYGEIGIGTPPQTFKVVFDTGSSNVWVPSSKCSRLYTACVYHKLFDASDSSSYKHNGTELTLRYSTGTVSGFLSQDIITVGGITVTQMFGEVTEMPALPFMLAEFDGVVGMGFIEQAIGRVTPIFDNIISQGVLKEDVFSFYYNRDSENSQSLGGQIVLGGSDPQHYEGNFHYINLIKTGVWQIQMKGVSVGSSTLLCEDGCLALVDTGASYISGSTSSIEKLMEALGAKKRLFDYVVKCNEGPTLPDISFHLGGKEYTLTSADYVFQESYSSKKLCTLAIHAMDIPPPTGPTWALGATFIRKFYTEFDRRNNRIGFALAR
Type: biochemical

SMILES	IC50 [nM]
O=C(c1c(-c2ccccc2)n(-c2ccccc2)c(=O)n1Cc1ccccc1)N1CCNCC1 [Example 45, 1-Benzyl-3,4-diphenyl-5-(piperazine-1-carbonyl)-1H-imidazol-2(3H)-one]	100 to 500
O=C(c1c(-c2ccccc2)n(-c2cccc(N3CCOCC3)c2)c(=O)n1Cc1cccc(Oc2ccccc2)c1)N1CCNCC1 [Example 74, 1-(3-Morpholinophenyl)-3-(3-phenoxybenzyl)-5-phenyl-4-(piperazine-1-carbonyl)-1H-imidazol-2(3H)-one]	< 100
CC(C)NC(=O)NCCCn1c(C(=O)N2CCNCC2)c(-c2ccccc2)n(-c2cccc(N3CCOCC3)c2)c1=O [Example 61, 1-Isopropyl-3-(3-(3-(3-morpholinophenyl)-2-oxo-4-phenyl-5-(piperazine-1-carbonyl)-2,3-dihydro-1H-imidazol-1-yl)propyl)urea]	> 1000
COc1ccccc1-n1c(-c2ccccc2)c(C(=O)N2CCNCC2)n(CCNC(=O)c2ccccc2)c1=O [Example 168, N-(2-(3-(2-Methoxyphenyl)-2-oxo-4-phenyl-5-(piperazine-1-carbonyl)-2,3-dihydro-1H-imidazol-1-yl)ethyl)benzamide]	100 to 500
Cc1ccccc1-n1c(-c2ccccc2)c(C(=O)N2CCNCC2)n(CCNC(=O)C2CCCCC2)c1=O [Example 237, N-(2-(2-oxo-4-phenyl-5-(piperazine-1-carbonyl)-3-o-tolyl-2,3-dihydro-1H-imidazol-1-yl)ethyl)cyclohexanecarboxamide]	> 1000
CCOC(=O)NCCn1c(C(=O)N2CCNCC2)c(-c2ccccc2)n(-c2ccccc2C)c1=O [Example 250, Ethyl 2-(2-oxo-4-phenyl-5-(piperazine-1-carbonyl)-3-o-tolyl-2,3-dihydro-1H-imidazol-1-yl)ethylcarbamate]	> 1000
CC1CN(C(=O)c2[nH]c(=O)n(C3CCCCC3)c2-c2ccccc2)C(C)CN1 (stereo not drawn) [Example 41, 1-Cyclohexyl-4-(2,5-dimethylpiperazine-1-carbonyl)-5-phenyl-1H-imidazol-2(3H)-one]	> 1000
O=C(c1[nH]c(=O)n(-c2cccc(N3CCOCC3)c2)c1-c1ccccc1)N1CCNCC1 [Example 22, 1-(3-Morpholinophenyl)-5-phenyl-4-(piperazine-1-carbonyl)-1H-imidazol-2(3H)-one]	500 to 1000
COCCOc1cccc(-n2c(-c3cccc(Cl)c3)c(C(=O)N3CCNCC3)[nH]c2=O)c1 [Example 43, 5-(3-Chlorophenyl)-1-(3-(2-methoxyethoxy)phenyl)-4-(piperazine-1-carbonyl)-1H-imidazol-2(3H)-one]	> 1000
Cc1ccccc1-n1c(-c2ccccc2)c(C(=O)N2CCNCC2)n(CCNC(=O)CC(C)C)c1=O [Example 238, 3-Methyl-N-(2-(2-oxo-4-phenyl-5-(piperazine-1-carbonyl)-3-o-tolyl-2,3-dihydro-1H-imidazol-1-yl)ethyl)butanamide]	> 1000
O=C(c1c(-c2ccccc2)n(C2CCCN(S(=O)(=O)c3ccccc3)C2)c(=O)n1Cc1ccccc1)N1CCNCC1 (stereo not drawn) [Example 96, 1-Benzyl-4-phenyl-3-(1-(phenylsulfonyl)piperidin-3-yl)-5-(piperazine-1-carbonyl)-1H-imidazol-2(3H)-one]	500 to 1000
CC(C)S(=O)(=O)NCCCn1c(C(=O)N2CCNCC2)c(-c2ccccc2)n(-c2cccc(N3CCOCC3)c2)c1=O [Example 196, N-(3-(3-(3-Morpholinophenyl)-2-oxo-4-phenyl-5-(piperazine-1-carbonyl)-2,3-dihydro-1H-imidazol-1-yl)propyl)propane-2-sulfonamide]	> 1000
O=C(c1c(-c2ccccc2)n(-c2cccc(N3CCOCC3)c2)c(=O)n1Cc1cccc(-n2cccc2)c1)N1CCNCC1 [Example 77, 1-(3-(1H-Pyrrol-1-yl)benzyl)-3-(3-morpholinophenyl)-4-phenyl-5-(piperazine-1-carbonyl)-1H-imidazol-2(3H)-one]	< 100
O=C(Nc1ccccc1-n1c(-c2ccccc2)c(C(=O)N2CCNC[C@H]2Cc2ccccc2)[nH]c1=O)C1CC1 [Example 120, (R)—N-(2-(4-(2-Benzylpiperazine-1-carbonyl)-2-oxo-5-phenyl-2,3-dihydro-1H-imidazol-1-yl)phenyl)cyclopropanecarboxamide]	100 to 500
CCOC(=O)NCCCn1c(C(=O)N2CCNCC2)c(-c2ccccc2)n(-c2ccccc2C)c1=O [Example 254, Ethyl 3-(2-oxo-4-phenyl-5-(piperazine-1-carbonyl)-3-o-tolyl-2,3-dihydro-1H-imidazol-1-yl)propylcarbamate]	> 1000
Cc1ccccc1-n1c(-c2ccccc2)c(C(=O)N2CCNCC2)n(CCNC(=O)OCc2ccccc2)c1=O [Example 251, Benzyl 2-(2-oxo-4-phenyl-5-(piperazine-1-carbonyl)-3-o-tolyl-2,3-dihydro-1H-imidazol-1-yl)ethylcarbamate]	> 1000
C[C@H]1CN(C(=O)c2[nH]c(=O)n(C3CCCCC3)c2-c2ccccc2)CCN1 [Example 39, (S)-1-Cyclohexyl-4-(3-methylpiperazine-1-carbonyl)-5-phenyl-1H-imidazol-2(3H)-one]	> 1000
COc1ccc(-c2cc(Cn3c(C(=O)N4CCNCC4)c(-c4ccccc4)n(C4CCCCC4)c3=O)cc(N(C)C)n2)cn1 [Example 17H, 1-cyclohexyl-3-((6-(dimethylamino)-6′-methoxy-2,3′-bipyridin-4-yl)methyl)-5-phenyl-4-(piperazine-1-carbonyl)-1H-imidazol-2(3H)-one]	100 to 500
O=C(O)COc1cccc(Cn2c(C(=O)N3CCNCC3)c(-c3ccccc3)n(-c3cccc(N4CCOCC4)c3)c2=O)c1 [Example 59, 2-(3-((3-(3-Morpholinophenyl)-2-oxo-4-phenyl-5-(piperazine-1-carbonyl)-2,3-dihydro-1H-imidazol-1-yl)methyl)phenoxy)acetic acid]	> 1000
CCOC(=O)N1CCc2ccc(-n3c(-c4ccccc4)c(C(=O)N4CCNC[C@H]4Cc4ccccc4)[nH]c3=O)cc21 [Example 139, (R)-Ethyl 6-(4-(2-benzylpiperazine-1-carbonyl)-2-oxo-5-phenyl-2,3-dihydro-1H-imidazol-1-yl)indoline-1-carboxylate]	< 100
O=C(c1c(-c2ccccc2)n(-c2cccc(N3CCOCC3)c2)c(=O)n1CCCNS(=O)(=O)c1ccc(Cl)cc1)N1CCNCC1 [Example 202, 4-Chloro-N-(3-(3-(3-morpholinophenyl)-2-oxo-4-phenyl-5-(piperazine-1-carbonyl)-2,3-dihydro-1H-imidazol-1-yl)propyl)benzenesulfonamide]	500 to 1000
O=C(c1c(-c2ccccc2)n(-c2cccc(N3CCOCC3)c2)c(=O)n1CCCNS(=O)(=O)c1ccccc1F)N1CCNCC1 [Example 193, 2-Fluoro-N-(3-(3-(3-morpholinophenyl)-2-oxo-4-phenyl-5-(piperazine-1-carbonyl)-2,3-dihydro-1H-imidazol-1-yl)propyl)benzenesulfonamide]	> 1000
Cc1ccccc1-n1c(-c2ccccc2)c(C(=O)N2CCNCC2)n(Cc2cccc(Oc3ccccc3)c2)c1=O [Example 142, 1-(3-Phenoxybenzyl)-4-phenyl-5-(piperazine-1-carbonyl)-3-o-tolyl-1H-imidazol-2(3H)-one]	100 to 500
O=C(NC[C@@H]1CNCCN1C(=O)c1[nH]c(=O)n(C2CCCCC2)c1-c1ccccc1)c1ccccc1 [Example 108, (S)—N-((1-(1-Cyclohexyl-2-oxo-5-phenyl-2,3-dihydro-1H-imidazole-4-carbonyl)piperazin-2-yl)methyl)benzamide]	< 100
